According to ChEMBL document CHEMBL1201861, “Genomics of Drug Sensitity in Cancer screening data, Wellcome Trust Sanger Institute”:
Where “and” joins values, the source holds several entries; their conditions need not be identical. Equal entries are not always repeated.

Key:
Assay in all cases: cells
CaR-1 = format: functional, cell-based, Homo sapiens
Description: SANGER: Inhibition of human CaR-1 cell growth in a cell viability assay.

Calu-3 = format: functional, cell-based, Homo sapiens
Description: SANGER: Inhibition of human Calu-3 cell growth in a cell viability assay.

ChaGo-K-1 = format: functional, cell-based; settings: Homo sapiens
Description: SANGER: Inhibition of human ChaGo-K-1 cell growth in a cell viability assay.

DOHH-2 = format: functional, cell-based; settings: Homo sapiens
Description: SANGER: Inhibition of human DOHH-2 cell growth in a cell viability assay.

ES3 = format: functional, cell-based, Homo sapiens
Description: SANGER: Inhibition of human ES3 cell growth in a cell viability assay.

GP5d = format: functional, cell-based, Homo sapiens
Description: SANGER: Inhibition of human GP5d cell growth in a cell viability assay.

HCC1419 = format: functional, cell-based, Homo sapiens
Description: SANGER: Inhibition of human HCC1419 cell growth in a cell viability assay.

HCC1569 = format: functional, cell-based, Homo sapiens
Description: SANGER: Inhibition of human HCC1569 cell growth in a cell viability assay.

HCC1806 = format: functional, cell-based, Homo sapiens
Description: SANGER: Inhibition of human HCC1806 cell growth in a cell viability assay.

HL-60 = format: functional, cell-based; settings: Homo sapiens
Description: SANGER: Inhibition of human HL-60 cell growth in a cell viability assay.

HMV-2 cell line = format: functional, cell-based, Homo sapiens; settings: hmv-2
Description: SANGER: Inhibition of human HMV-II cell growth in a cell viability assay.

HOP-62 = format: functional, cell-based, Homo sapiens; settings: hop-62
Description: SANGER: Inhibition of human HOP-62 cell growth in a cell viability assay.

HT1197 = format: functional, cell-based, Homo sapiens, HT-1197
Description: SANGER: Inhibition of human HT-1197 cell growth in a cell viability assay.

KNS-42 = format: functional, cell-based, Homo sapiens
Description: SANGER: Inhibition of human KNS-42 cell growth in a cell viability assay.

KP-4 = format: functional, cell-based, Homo sapiens; settings: read-out: IC50
Description: SANGER: Inhibition of human KP-4 cell growth in a cell viability assay.

KP-N-YN = format: functional, cell-based; settings: Homo sapiens
Description: SANGER: Inhibition of human KP-N-YN cell growth in a cell viability assay.

KYSE-450 = format: functional, cell-based; settings: Homo sapiens
Description: SANGER: Inhibition of human KYSE-450 cell growth in a cell viability assay.

LCLC-103H cell line = format: functional, cell-based, Homo sapiens
Description: SANGER: Inhibition of human LCLC-103H cell growth in a cell viability assay.

LK-2 = format: functional, cell-based, Homo sapiens
Description: SANGER: Inhibition of human LK-2 cell growth in a cell viability assay.

LS-1034 = format: functional, cell-based, Homo sapiens
Description: SANGER: Inhibition of human LS-1034 cell growth in a cell viability assay.

MHH-ES-1 = format: functional, cell-based, Homo sapiens
Description: SANGER: Inhibition of human MHH-ES-1 cell growth in a cell viability assay.

MeWo = format: functional, cell-based, Homo sapiens
Description: SANGER: Inhibition of human Mewo cell growth in a cell viability assay.

NB10 = format: functional, cell-based, Homo sapiens
Description: SANGER: Inhibition of human NB10 cell growth in a cell viability assay.

NCI-H1755 = format: functional, cell-based, Homo sapiens
Description: SANGER: Inhibition of human NCI-H1755 cell growth in a cell viability assay.

NCI-H1838 = format: functional, cell-based, Homo sapiens
Description: SANGER: Inhibition of human NCI-H1838 cell growth in a cell viability assay.

NCI-H520 = format: functional, cell-based, Homo sapiens
Description: SANGER: Inhibition of human NCI-H520 cell growth in a cell viability assay.

OMC-1 = format: functional, cell-based, Homo sapiens
Description: SANGER: Inhibition of human OMC-1 cell growth in a cell viability assay.

OVCAR-4 = format: functional, cell-based, Homo sapiens
Description: SANGER: Inhibition of human OVCAR-4 cell growth in a cell viability assay.

PC-14 = format: functional, cell-based, Homo sapiens
Description: SANGER: Inhibition of human PC-14 cell growth in a cell viability assay.

Ramos-2G6-4C10 = format: functional, cell-based; settings: Homo sapiens
Description: SANGER: Inhibition of human Ramos-2G6-4C10 cell growth in a cell viability assay.

SCC-4 = format: functional, cell-based, Homo sapiens
Description: SANGER: Inhibition of human SCC-4 cell growth in a cell viability assay.

SCC-9 = format: functional, cell-based, Homo sapiens
Description: SANGER: Inhibition of human SCC-9 cell growth in a cell viability assay.

SK-MES-1 = format: functional, cell-based, Homo sapiens
Description: SANGER: Inhibition of human SK-MES-1 cell growth in a cell viability assay.

SK-NEP-1 = format: functional, cell-based; settings: Homo sapiens
Description: SANGER: Inhibition of human SK-NEP-1 cell growth in a cell viability assay.

SK-UT-1 = format: functional, cell-based, Homo sapiens; settings: sk-ut-1
Description: SANGER: Inhibition of human SK-UT-1 cell growth in a cell viability assay.

SKG-IIIa = format: functional, cell-based, Homo sapiens
Description: SANGER: Inhibition of human SKG-IIIa cell growth in a cell viability assay.

SW1710 = format: functional, cell-based, Homo sapiens
Description: SANGER: Inhibition of human SW1710 cell growth in a cell viability assay.

SW756 = format: functional, cell-based, Homo sapiens
Description: SANGER: Inhibition of human SW756 cell growth in a cell viability assay.

T-24 = format: functional, cell-based, Homo sapiens
Description: SANGER: Inhibition of human T-24 cell growth in a cell viability assay.

CWR22R = format: functional, cell-based, Homo sapiens
Description: SANGER: Inhibition of human 22RV1 cell growth in a cell viability assay.

A101D = format: functional, cell-based, Homo sapiens
Description: SANGER: Inhibition of human A101D cell growth in a cell viability assay.

A2780 = format: functional, cell-based, Homo sapiens
Description: SANGER: Inhibition of human A2780 cell growth in a cell viability assay.

A-427 = format: functional, cell-based, Homo sapiens
Description: SANGER: Inhibition of human A427 cell growth in a cell viability assay.

BE-13 = format: functional, cell-based; settings: Homo sapiens
Description: SANGER: Inhibition of human BE-13 cell growth in a cell viability assay.

BT-474 = format: functional, cell-based, Homo sapiens
Description: SANGER: Inhibition of human BT-474 cell growth in a cell viability assay.

BXPC-3 = format: functional, cell-based, Homo sapiens
Description: SANGER: Inhibition of human BxPC-3 cell growth in a cell viability assay.

C-33-A = format: functional, cell-based, Homo sapiens
Description: SANGER: Inhibition of human C-33-A cell growth in a cell viability assay.

U-266 = format: functional, cell-based; settings: Homo sapiens
Description: SANGER: Inhibition of human U-266 cell growth in a cell viability assay.

U-251 = format: functional, cell-based, Homo sapiens
Description: SANGER: Inhibition of human U251 cell growth in a cell viability assay.

UMC-11 = format: functional, cell-based, Homo sapiens
Description: SANGER: Inhibition of human UMC-11 cell growth in a cell viability assay.

H4 = format: functional, cell-based; settings: Homo sapiens
Description: SANGER: Inhibition of human H4 cell growth in a cell viability assay.

## Cc1cc([C@@H](C)Nc2ccccc2C(=O)O)c2nc(N3CCOCC3)cc(=O)n2c1 [AZD-6482]
CaR-1; car-1
  IC50: > 5120 nM
Calu-3; calu-3
  IC50: 3440 nM and > 5120 nM
ChaGo-K-1
  IC50: > 5120 nM
DOHH-2
  IC50: 4650 nM
ES3; Homo sapiens, ES3
  IC50: > 5120 nM
ES3; es3
  IC50: > 5120 nM
GP5d; Homo sapiens, GP5d
  IC50: > 5120 nM
GP5d; gp5d
  IC50: > 5120 nM
HCC1419; hcc1419
  IC50: > 5120 nM
HCC1569; hcc1569
  IC50: 3290 nM and > 5120 nM
HCC1806; hcc1806
  IC50: > 5120 nM
HL-60
  IC50: > 5120 nM
HMV-2 cell line
  IC50: > 5120 nM
HOP-62
  IC50: > 5120 nM
HT1197; ht-1197
  IC50: > 5120 nM
KNS-42; kns-42
  IC50: > 5120 nM
KP-4; kp-4
  IC50: > 5120 nM
KP-N-YN
  IC50: > 5120 nM
KYSE-450
  IC50: > 5120 nM
LCLC-103H cell line; Homo sapiens, LCLC-103H
  IC50: > 5120 nM
LCLC-103H cell line; lclc-103h
  IC50: > 5120 nM
LK-2; lk-2
  IC50: > 5120 nM
LS-1034; Homo sapiens, LS-1034
  IC50: > 5120 nM
LS-1034; ls-1034
  IC50: > 5120 nM
MHH-ES-1; mhh-es-1
  IC50: > 5120 nM
MeWo; mewo
  IC50: > 5120 nM and 3170 nM
NB10; Homo sapiens, NB10
  IC50: > 5120 nM
NB10; nb10
  IC50: > 5120 nM
NCI-H1755; Homo sapiens, NCI-H1755
  IC50: 3270 nM
NCI-H1755; nci-h1755
  IC50: 3310 nM
NCI-H1838; nci-h1838
  IC50: > 5120 nM
NCI-H520; Homo sapiens, NCI-H520
  IC50: 4210 nM
NCI-H520; nci-h520
  IC50: > 5120 nM
OMC-1; omc-1
  IC50: > 5120 nM
OVCAR-4; ovcar-4
  IC50: > 5120 nM
PC-14; pc-14
  IC50: > 5120 nM
Ramos-2G6-4C10
  IC50: > 5120 nM
SCC-4; scc-4
  IC50: > 5120 nM
SCC-9; Homo sapiens, SCC-9
  IC50: 858 nM
SCC-9; scc-9
  IC50: 904 nM
SK-MES-1; sk-mes-1
  IC50: 790 nM and > 5120 nM
SK-NEP-1
  IC50: > 5120 nM
SK-UT-1
  IC50: 2450 nM and > 5120 nM
SKG-IIIa; skg-iiia
  IC50: > 5120 nM
SW1710; sw1710
  IC50: 529 nM and 1990 nM
SW756; Homo sapiens, SW756
  IC50: > 5120 nM
SW756; sw756
  IC50: > 5120 nM
T-24; t-24
  IC50: > 5120 nM
CWR22R; Homo sapiens, 22Rv1
  IC50: > 5120 nM
CWR22R; cwr22r
  IC50: > 5120 nM
A101D; a101d
  IC50: 3210 nM and > 5120 nM
A2780; a2780
  IC50: > 5120 nM and 2560 nM
A-427; a-427
  IC50: 995 nM and > 5120 nM
BE-13
  IC50: > 5120 nM
BT-474; bt-474
  IC50: > 5120 nM
BXPC-3; bxpc-3
  IC50: > 5120 nM and 3450 nM
C-33-A; c-33-a
  IC50: > 5120 nM
U-266
  IC50: > 5120 nM
U-251; u-251
  IC50: > 5120 nM
UMC-11; Homo sapiens, UMC-11
  IC50: > 5120 nM
UMC-11; umc-11
  IC50: > 5120 nM

## COc1ccc(-c2ccc3c(N4CCOC[C@@H]4C)nc(N4CCOC[C@@H]4C)nc3n2)cc1CO [AZD-8055]
CaR-1; Homo sapiens, CaR-1
  IC50: 1750 nM
Calu-3; Homo sapiens, Calu-3
  IC50: 1650 nM
ChaGo-K-1
  IC50: > 2000 nM
DOHH-2
  IC50: 793 nM
ES3; Homo sapiens, ES3
  IC50: 1130 nM
GP5d; Homo sapiens, GP5d
  IC50: > 2000 nM
H4
  IC50: 601 nM
HCC1419; Homo sapiens, HCC1419
  IC50: 869 nM
HCC1569; Homo sapiens, HCC1569
  IC50: 852 nM
HCC1806; Homo sapiens, HCC1806
  IC50: 933 nM
HL-60
  IC50: 604 nM
HT1197; Homo sapiens, HT1197
  IC50: > 2000 nM
KNS-42; Homo sapiens, KNS-42
  IC50: > 2000 nM
KP-4; Homo sapiens, KP-4
  IC50: > 2000 nM
KP-N-YN
  IC50: > 2000 nM
KYSE-450
  IC50: 827 nM
LCLC-103H cell line; Homo sapiens, LCLC-103H
  IC50: > 2000 nM
LK-2; Homo sapiens, LK-2
  IC50: 268 nM
LS-1034; Homo sapiens, LS-1034
  IC50: > 2000 nM
MHH-ES-1; Homo sapiens, MHH-ES-1
  IC50: 835 nM
MeWo; Homo sapiens, MeWo
  IC50: 1090 nM
NB10; Homo sapiens, NB10
  IC50: > 2000 nM
NCI-H1755; Homo sapiens, NCI-H1755
  IC50: 1140 nM
NCI-H1838; Homo sapiens, NCI-H1838
  IC50: > 2000 nM
NCI-H520; Homo sapiens, NCI-H520
  IC50: 348 nM
OMC-1; Homo sapiens, OMC-1
  IC50: 727 nM
OVCAR-4; Homo sapiens, OVCAR-4
  IC50: 819 nM
PC-14; Homo sapiens, PC-14
  IC50: 590 nM
Ramos-2G6-4C10
  IC50: 170 nM
SCC-4; Homo sapiens, SCC-4
  IC50: 585 nM
SCC-9; Homo sapiens, SCC-9
  IC50: > 2000 nM
SK-MES-1; Homo sapiens, SK-MES-1
  IC50: 438 nM
SK-NEP-1
  IC50: 625 nM
SKG-IIIa; Homo sapiens, SKG-IIIa
  IC50: 1310 nM
SW1710; Homo sapiens, SW1710
  IC50: 632 nM
SW756; Homo sapiens, SW756
  IC50: > 2000 nM
T-24; Homo sapiens, T-24
  IC50: > 2000 nM
CWR22R; Homo sapiens, 22Rv1
  IC50: 707 nM
A101D; Homo sapiens, A101D
  IC50: 490 nM
A2780; Homo sapiens, A2780
  IC50: 1720 nM
A-427; Homo sapiens, A-427
  IC50: 962 nM
BE-13
  IC50: 1120 nM
BT-474; Homo sapiens, BT-474
  IC50: 1780 nM
BXPC-3; Homo sapiens, BXPC-3
  IC50: 888 nM
C-33-A; Homo sapiens, C-33-A
  IC50: 904 nM
U-266
  IC50: > 2000 nM
U-251; Homo sapiens, U-251
  IC50: > 2000 nM
UMC-11; Homo sapiens, UMC-11
  IC50: > 2000 nM
